In patent US8367716B2 (priority 2003, dated 2013):

Tests used:
[1] = test system: S. aureus; experiment: Tube agglutination assay and light microscopy (cell-to-cell aggregation); format: cell-based, Staphylococcus aureus
Procedure: Tube agglutination assay and light microscopy. Colonies from a 18 h blood agar plate were inoculated into 1 ml PBS to make a 0.5 McFarland standard containing ˜5×10^8 cfu/ml (confirmed by plate count). A 5 μl aliquot from the 0.5 McFarland standard was then inoculated into 5 ml polystyrene tubes containing 1 ml TSB representing ˜10^5 cfu/ml (confirmed by plate count). These tubes were inoculated either with 50 μl c-di-GMP to give a 200 μM c-di-GMP final concentration representing a “treated” sample or inoculated with 50 μl 0.9% NaCl as a control and representing an “untreated” control. Cultures were incubated at 37° C. for 24 h statically. Following incubation, these cultures were examined macroscopically and microscopically (Zeiss Axioskop) for the presence or absence of visible cell-to-cell clumping.

[2] = test system: S. aureus; experiment: Biofilm formation on polystyrene microtitre plates (crystal violet, O.D.570); format: cell-based, Staphylococcus aureus
Procedure: Effect of c-di-GMP on S. aureus biofilm formation. S. aureus strains were subcultured from glycerol stocks onto blood agar plates and incubated at 37° C. for 18 h. A single colony was inoculated into 5 ml TSB broth with a sterilized loop and incubated at 37° C. for 18 h with shaking at 250 rpm and until the O.D.660 reached 3.0 as measured spectrophotometrically using a spectrophotometer (SpectraMAX 250, Molecular Devices). Following incubation, the culture was diluted 1:250 with fresh TSB and a 200 μl of the diluted culture was transferred into wells of a flat-bottom polystyrene microtitre plate (Evergreen Scientific). […] In these biofilm experiments, similar volumes of 0.9% NaCl was added to a set of different wells representing the “untreated” control samples. The microtitre plates were then incubated statically at 37° C. for 24 h or 48 h. Following incubation, the supernatant was carefully discarded and the wells washed twice with 260 μl PBS. The plate was then kept for drying on a paper towel for 30 min after which 260 μl 0.1% crystal violet was added to each well and the plates incubated at room temperature for 30 min. The crystal violet was discarded and plate washed gently with water, the wells allowed to dry for 30 min then 260 μl DMSO was added to each well and gently agitated for 1 h and the O.D.570 measured by using a spectrophotometer (SpectraMAX 250, Molecular Devices). The results of these biofilm assays were based on data obtained from at least three independent colonies tested in duplicate.

[3] = test system: S. aureus strain DK825 adherence to HeLa cells; experiment: Epithelial cell assay (bacterial adherence to HeLa cells); format: cell-based, Staphylococcus aureus
Procedure: Epithelial cell assay. HeLa cells (ATCC CCL2) were grown to confluence in complete medium (10% FBS from Sigma, DMEM/F12 with glutamine from Invitrogen and 50 μg/ml gentamicin) and were trypsinized with 0.1% trypsin-EDTA. Approximately 1×10^5 HeLa cells were seeded in each well of a chamber slide and then the HeLa cells were incubated at 37° C. in 5% CO2 for at least 18 h until 85% confluent. Prior to infection, the HeLa cells were washed twice with warm PBS and then 500 μl warm FMEM/F12 was added to each well. For the bacterial adherence assay, an overnight culture of S. aureus strain DK825 was grown overnight in 5 ml LB broth at 37° C. with shaking at 250 rpm. Following incubation, 1 ml of the overnight culture was pelleted, washed twice with PBS and resuspended in 1 ml of PBS. The HeLa cells in the wells were washed twice with 500 μl of HBSS and aliquots of DMEM with the desired final concentration of c-di-GMP (0-, 2-, 20- and 200 μM) were prepared. DMEM (500 μl) containing the respective concentrations of c-di-GMP was inoculated into the wells containing HeLa cells followed by the addition of 10 μl (˜10^7 cells) S. aureus (MOI HeLa:bacteria˜1:100). The epithelial cell assay was incubated in CO2 for 45 min. Following incubation the cells were washed twice with 500 μl PBS and fixed with 2% formalin for 20 min. The cells were again washed twice with PBS and stained with Giemsa stain for 10 seconds, washed three times with PBS, then the cells covered with 40 μl of 90% glycerol in water and a cover slip was placed. The slides were observed under a light microscope (Zeiss Axioskop) at 630×mag. The level of bacterial adherence to 100 individual HeLa cells was calculated for each duplicate treatment and the average determined.

[4] = test system: HeLa cells; experiment: HeLa cell toxicity (cell morphology); format: cell-based, human
Procedure: (§1) Safety and toxicity assays. For HeLa cell toxicity studies, various concentrations (0-, 25-, 50-, 100-, 200- and 400 μM) of c-di-GMP were tested in separate wells of chamber slides containing HeLa cells prepared as described above in complete media (in the absence of bacteria). HeLa cell morphology was examined microscopically after 12-, 24- and 48 h incubation. The potential lethality of c-di-GMP administered to mice was also examined. In these studies, adult female CD-1 mice and 5 day old infant mice were inoculated orally with 50 μL of 200 μM c-di-GMP and examined 24 h after c-di-GMP treatment.

[5] = test system: CD-1 mice; experiment: Lethality in mice after oral c-di-GMP; format: in vivo; details: 50 μL of 200 μM, orally, examined 24 h after treatment
Procedure: as §1

[6] = test system: Salmonela enteritidis; experiment: Biofilm formation in Salmonela enteritidis; format: cell-based
[7] = test system: S. aureus strain DK825

SMILES: Nc1nc2c(ncn2C2OC3COP(=O)(O)OC4C(COP(=O)(O)OC3C2O)OC(n2cnc3c(=O)[nH]c(N)nc32)C4O)c(=O)[nH]1 (stereo not drawn) [c-di-GMP, 3′,5′-cyclic diguanylic acid]
- cell-to-cell interactions and clumping (Gram stain, light microscopy) ([1]; DK825, 200 μM): dramatically less cell-to-cell interactions and clumping
- visible cell aggregation (macroscopic) ([1]; DK825, 200 μM, 24 h static): no obvious visible cell aggregation or pellet
- visible cell aggregation (macroscopic) ([1]; bap mutant M556): inhibits cell aggregation
- cell-to-cell interactions and clumping (Gram stain, light microscopy) ([1]; bovine mastitis strains V329, V299, V315): less intercellular interactions and clumping
- reduction of biofilm formation ([2]; DK825, 20 μM, 24 h): ~50%
- reduction of biofilm formation ([2]; DK825, 200 μM, 24 h): ~65%
- reduction of biofilm formation ([2]; DK825, 400 μM, 24 h): ~85%
- reduction of biofilm formation ([2]; bovine strains V329, M556, V299, V315): 50-70%
- reduction of cell-to-surface interactions and biofilm formation ([2]; human and bovine isolates vs untreated controls): > 50%
- effect on adherence to HeLa cells ([3]; 2 μM): did not show any obvious effect
- effect on adherence to HeLa cells ([3]; 20 μM): did not show any obvious effect
- reduction in adherence ([3]; 200 μM): ~66%
- average adherence ([3]; 200 μM, untreated 12 bacteria/cell): 4 bacteria/cell
- concentrations relatively noncytotoxic to HeLa cells [4]: < 400 µM
- effect on HeLa cell morphology ([4]; 0-, 25-, 50-, 100-, 200- and 400 μM, 12-, 24- and 48 h): no obvious visible effect
- changes in HeLa cell morphology ([4]; 400 μM, 48 h exposure): morphological changes
- changes in HeLa cell morphology ([4]; up to 400 μM, 24 h exposure): did not cause any obvious changes in cell morphology
- lethality [5]: no lethal effects were observed
- effect on biofilm formation [6]: induce or enhance biofilm formation
- expression of enterotoxin 1, Down-regulated [7]: 0.35 fold
- expression of enterotoxin A, Down-regulated [7]: 0.54 fold
- expression of toxic shock syndrome toxin, Down-regulated [7]: 0.45 fold
- expression of PBP-2, Up-regulated ([7]; 200 μM vs untreated control): 2.0 fold
- expression of PBP-4, Up-regulated ([7]; 200 μM vs untreated control): 1.7 fold
- expression of agrA (quorum sensing), Up-regulated ([7]; 200 μM vs untreated control): 5.4 fold
- expression of agrB (quorum sensing), Up-regulated ([7]; 200 μM vs untreated control): 5.8 fold
- expression of agrC (quorum sensing), Up-regulated ([7]; 200 μM vs untreated control): 2.0 fold
- expression of agrD (quorum sensing), Up-regulated ([7]; 200 μM vs untreated control): 2.2 fold
- expression of clfA (clumping factor), Down-regulated ([7]; 200 μM vs untreated control): 0.54 fold
- expression of clfB (clumping factor), Down-regulated ([7]; 200 μM vs untreated control): 0.43 fold
- expression of collagen adhesin, Down-regulated ([7]; 200 μM vs untreated control): 0.55 fold
- expression of exfoliative toxin, Down-regulated ([7]; 200 μM vs untreated control): 0.52 fold
- expression of fbnA (fibrinogen binding), Down-regulated ([7]; 200 μM vs untreated control): 0.66 fold
- expression of fnbB (fibronectin binding), Down-regulated ([7]; 200 μM vs untreated control): 0.47 fold
- expression of icaR (intercellular adhesin), Down-regulated ([7]; 200 μM vs untreated control): 0.62 fold
- expression of rsbW (anti-sigmaB), Up-regulated ([7]; 200 μM vs untreated control): 4.5 fold
- expression of saeR (response regulator), Up-regulated ([7]; 200 μM vs untreated control): 2.5 fold
- expression of saeS (histidine kinase), Up-regulated ([7]; 200 μM vs untreated control): 1.5 fold
- expression of vacuolating cytotoxin, Down-regulated ([7]; 200 μM vs untreated control): 0.56 fold
